Source: PMC2956624, “Context-Dependent Cell Cycle Checkpoint Abrogation by a Novel Kinase Inhibitor” (PLoS ONE, 2010)

System: HT29 cells
Assay: Flow cytometry cell cycle profiles, HT29
Format: cell-based, human
Conditions: for abrogation of DNA damage induced cell cycle arrest: DNA damaging agent 16 hours, then PF-477736 (400 nM) or VX680 (400 nM) 48 hours
Protocol: Fixed cells were analyzed by flow cytometry.
All cells were harvested, fixed in 70% ethanol and stained with propidium iodide/RNase A. Cell cycle profiles were examined by flow cytometry using a FACSArray cytometer (BD) and FACSDiva software (BD).

Row | Compound | cells remaining arrested in G2 or M (100 nM paclitaxel 18 hours, then 24 hours with 200 nM VER-150548 or 400 nM VX680 (DMSO 65.4%)) | abrogation of DNA damage induced cell cycle arrest | cell cycle effect as single agent (unperturbed cells, 8 to 48 hours)
1 | Cc1cc(Nc2cc(N3CCN(C)CC3)nc(Sc3ccc(NC(=O)C4CC4)cc3)n2)[nH]n1 [VX680] | 28.5% | unable to override the DNA damage induced arrest | caused G2/M arrest at early time points and subsequent reduplication following extended incubation
2 | Cn1cc(-c2[nH]c3cc(NC(=O)[C@H](N)C4CCCCC4)cc4c3c2C=NNC4=O)cn1 [PF-477736] | – | abrogated DNA damage induced cell cycle arrest | –
